Assay results reported in article PMC4569013, “Massive Bioaccumulation and Self‐Assembly of Phenazine Compounds in Live Cells” (Advanced Science, 2015).

Tests used:
[1] = parameters: method as in PMID 21800872; conditions: DMEM with 5% FBS; cited from earlier work
RAW264.7 macrophages [2] = experiment: Cell accumulation experiment, transmitted light microscopy of cellular staining pattern; type: cell-based; conditions: for Inferred uptake: inferred from staining pattern after 72 hour incubation; for Observed cellular staining pattern (Notes): live cells, 72 hour incubation, 5 × 10^−6 M (2.5 × 10^−6 M for I)
Protocol: Cell Accumulation Experiments and Transmitted Light Microscopic Examination: […] After a 24 h incubation (37 °C, 5% CO2), cells were incubated with solution of clofazmine or its chemical derivatives (300 μL of 5 × 10^−6 m concentration; measured cell viability ranging from 85% to 97% for all compounds tested at this concentration; Figure 1) in DMEM (no phenol red; plus 1 × 10^−3 M sodium pyruvate and 5% FBS). For Compound “I,” 2.5 × 10^−6 M of compound solution in media was used for the RAW 264.7 macrophages incubation because of lower cell viability at higher concentrations (IC50 = (3.95 ± 0.11) × 10^−6 M). A solution of clofazmine or other chemical derivatives was made by a diluting stock solutions (2.5 × 10^−3 M in DMSO; 10 × 10^−3 M stock in DMSO were stored at −80 °C for further use) into DMEM with 5% FBS. […] The extracellular concentration of each compound in each well was maintained by daily replacement of the compound‐containing media. After 72 h of incubation with clofazmine or its derivatives, compound‐containing media were removed and cells were washed twice with media. Live cells in the chambered glasses were examined under inverted transmitted light microscopy (Nikon Eclipse Ti microscope) with a 40× objective and color camera. As a control experiment, fixed cells were also microscopically examined after incubation with the compounds. Cells were seeded on the chambered cover glasses at the density of 1.5 × 10^4 cells cm^−2 (RAW264.7 macrophages) or 2.5 × 10^4 cells cm^−2 (MDCK epithelial cells). After an overnight incubation (37 °C, 5% CO2), media was removed from the wells and cold methanol (−20 °C) was added to each well. After 30 s, remaining methanol was removed by washing with media with 5% FBS. Fixed cells were incubated (37 °C, 5% CO2) with clofazmine or derivatives (300 μL of 5 × 10^−6 M; 2.5 × 10^−6 M for I) in media with 5% FBS. After 72 h, fixed RAW264.7 or MDCK cells were washed with media and examined using the same transmitted microscopy conditions as the live cells.

[3] = Solubility measurements in cell culture media (DMEM) with or without FBS; type: physicochemical; conditions: at the concentrations added to the cells
Protocol: Solubility Measurements: Solutions containing the phenazine derivatives were made in cell culture media (DMEM) with or without FBS (10%). After a 24 h incubation, the solutions were centrifuged (10 000 × g, 10 min), the supernatant was removed and the precipitate was dissolved in 9 M H2SO4. The supernatant was diluted with 10 M NaOH to precipitate the remaining solubilized compound. The diluted supernatant was centrifuged (10 000 × g, 10 min) followed by dissolution of the precipitate in 9 M H2SO4. Both fractions were spectrophotometrically measured with a Biotek microplate spectrophotometer (λ = 540 nm) and phenazine content was determined using calibrated clofazimine standards.

RAW264.7 macrophages [4] = experiment: XTT colorimetric cytotoxicity assay; type: cell-based; conditions: Mus musculus, RAW 264.7 macrophages, 72 h incubation, read-out: IC50 (cell viability, XTT)
Protocol: Cytotoxicity Measurements: A 3′‐bis(4‐methoxy‐6‐nitro)benzene‐sulfonic acid hydrate (XTT) colorimetric assay was performed to assess the cytotoxicity of the clofazmine derivatives in RAW264.7 macrophages or MDCK epithelial cells using a Cell Proliferation Kit II (Roche Chemicals, Indianapolis, IN). […] The absorbance value in each well was measured at 495 nm against a reference wavelength at 650 nm using a microplate reader (Synergy 2, BioTek Instruments, Winooski, VT). […] The IC50 value for each compound was calculated from the concentration‐response curve generated by a nonlinear regression (curve fit) method in GraphPad Prism version 5.0 (GraphPad Software, Inc., San Diego, CA). The concentration of clofazimine or its chemical derivatives used for further in vitro cell studies was determined based on cell viability (%) assay results (see the next section).

Row | Structure (SMILES) | Precipitate formation in media [1] | Inferred uptake (RAW264.7 macrophages [2]) | Observed cellular staining pattern (Notes) (RAW264.7 macrophages [2]) | Solubility in serum containing media [3] | IC50 (RAW264.7 macrophages [4]) [µM] | Cellular staining relative to clofazimine (RAW264.7 macrophages [2]; live macrophages, 72 h) | Staining in fixed cells (RAW264.7 macrophages [2]; methanol-fixed cells incubated 72 h with compound (control))
1 | CC(C)/N=c1\cc2n(-c3ccc(Cl)cc3)c3ccccc3nc-2cc1Nc1ccc(Cl)cc1 [Clofazimine, clofazimine, reference compound] | did not form visible precipitates | Moderate | Orange-brown staining pattern associated with perinuclear cytoplasmic vesicles | stably solubilized |  |  | 
2 | OCCN=c1cc2n(-c3ccc(Cl)cc3)c3ccccc3nc-2cc1Nc1ccc(Cl)cc1 [I] |  | Excellent | Dark brown, crystal-like inclusions present in live cells |  | 3.95 | comparable in morphology and intensity to those of clofazimine | absent in fixed cells
